Source: the SangsterLogP compilation

Experiment: method code SF-AS, from DOI: 10.1016/0223-5234(89)90056-1
Details: pH 7.4

| Compound | logD |
| --- | --- |
| Cn1cc([N+](=O)[O-])c2cccnc21 | 0.49 |
| COc1nc2c(c(=O)n(C)c(=O)n2C)n1C | -0.09 |
| O=C(Cn1cc([N+](=O)[O-])c2cccnc21)NCCCN1CCOCC1 | -0.15 |
| O=[N+]([O-])c1c[nH]c2nccnc12 | -0.23 |

Other lines, results leading:

| logD | Compound |
| --- | --- |
| 0.57 | CCOC(=O)Cn1cc([N+](=O)[O-])c2cccnc21 |
| -0.12 | CCOC(=O)Cn1cccc2c([N+](=O)[O-])cnc1-2 |
| -0.52 | O=C(Cn1cccc2c([N+](=O)[O-])cnc1-2)NCCCN1CCOCC1 |
| -0.28 | O=[N+]([O-])c1cn(CC(O)CO)c2ncccc12 (stereo not given) |
| -0.19 | O=C(Cn1cc([N+](=O)[O-])c2cccnc21)NCCO |
| 1.95 | O=[N+]([O-])c1cn(CCBr)c2ncccc12 |
